The text below walks through data of patent US9481662B2, “Seriniquinones, melanoma-specific anticancer agents” (The Regents of the University of California, priority 2012, dated 2016).

A word on the IC50: it is the concentration needed to halve the response being measured.

The subject of data set [1] is DCD-1L. As to the kind of experiment: Covalent labeling of DCD-1L peptide (fluorescent band on SDS-PAGE). Format: binding, human. As to conditions: 50 μM; for covalent labeling of DCD-1L: 37° C., 24 h. The text has this:
FIGS. 5A-5E: Seriniquinone (1) targets dermcidin (DCD). […] Sequence listing (FIG. 5B): […] (SEQ ID NO:3); […] (SEQ ID NO:4).
The reactivity between 1 and DCD was then examined. […] These studies now provided initial support for the formation of a unique trimeric covalent adduct, compound 15, between 1, DCD and targeted proteins such as GADPH.

Data set [2] can be described thus: Stability on storage / in solution. Format: physicochemical.
Data set [3] deals with HCT-116 cells. As to the kind of experiment: Cytotoxicity analysis (MTT/MTS) in HCT-116 colon carcinoma cells. The format is cell-based, human. The settings on record: Table 1; for IC50: Homo sapiens, HCT-116, read-out: HCT 116 IC50. The text has this: Fortunately, 1 was fluorescent with excitation maxima at 250 nm (ε=20,800 cm^−1M^−1), 289 nm (ε=24,000 cm^−1M^−1) and 342 nm (ε=6900 cm^−1M^−1) and a broad emission from 490-680 nm. Using confocal microscopy, red and green fluorescence from 1 appeared in HCT-116 cells within minutes of addition (FIG. 3A). […] Time course confocal imaging studies were then combined with conventional activity MTT assays^6 to provide a detailed correlation between cellular localization and cytostatic activity.
HCT-116 colon carcinoma cells were plated in 96-well plates at 2.5×10^4 cells/well. After 24 h, the cultures were treated with a single concentration seriniquinone (1) within the range of 0.02-20.0 μM, etoposide (positive control) in the range of 0.05-50 μM or 1% DMSO (negative control). The cells were incubated for either 24 h, 48 h or 72 h. At the end of the incubation period, cultures were added with 3-(4,5-dimethylthiazol-2-yl)-5-(3-carboxymethoxyphenyl)-2-(4-sulfophenyl)-2H-tetrazolium (MTS) for 3 h. Cell viability was quantified by the ability of living cells to reduce the yellow MTS dye to a purple formazan product. Time course experiments were also conducted in HCT-116 cells. Cells were exposed to 1 over short periods (1 h, 3 h, 6 h, and 9 h) followed by incubation in drug-free media to complete a total of 24 h incubation before addition of MTS.

`O=C(O)CCc1ccc2c(=O)c3c(sc4c(=O)c5ccccc5c(=O)c43)c(=O)c2c1` [acid 11, 3-(5,7,12,13-Tetraoxo-5,7,12,13-tetrahydrodinaphtho[2,3-b:2′,3′-d]-thiophen-3-yl)-propanoic acid]: in data set [1], the “covalent labeling of DCD-1L” value is “covalently label DCD-1L”.

As for `Oc1c2ccccc2c(O)c2c1sc1c(O)c3ccccc3c(O)c12` [Compound S23], the stability in solution entry in data set [2] (in solution) is given as “oxidizes rapidly back to S22a in solution”.

For `O=C(Nc1ccc2c(=O)c3c(sc4c(=O)c5ccc(NC(=O)C(F)(F)F)cc5c(=O)c43)c(=O)c2c1)C(F)(F)F` [p12], the IC50 in data set [3] is 710 nM.

Regarding `O=c1c2cc(O)ccc2c(=O)c2c1sc1c(=O)c3ccc(O)cc3c(=O)c12` [p6], in data set [3], the IC50 stood at 1900 nM.

In the case of `CC(=O)Oc1ccc2c(=O)c3c(sc4c(=O)c5ccc(OC(C)=O)cc5c(=O)c43)c(=O)c2c1` [p14], in data set [3], the IC50 was 2100 nM.

Regarding `Nc1ccc2c(=O)c3c(sc4c(=O)c5ccc(N)cc5c(=O)c43)c(=O)c2c1` [p4], in data set [3], the IC50 is 2200 nM.

Turning to `O=c1c2cc(Cl)ccc2c(=O)c2c1sc1c(=O)c3ccc(Cl)cc3c(=O)c12` [p9], in data set [3], the IC50 was found to be 550 nM.

As for `O=c1c2ccccc2c(=O)c2sc3c(=O)c4ccccc4c(=O)c3sc12` [p2], the “HCT 116 IC50, μM” value in data set [3] is on record as “NSA”.

For the compound `O=C(Nc1cccc2c(=O)c3c(sc4c(=O)c5cccc(NC(=O)C(F)(F)F)c5c(=O)c43)c(=O)c12)C(F)(F)F` [p23], the IC50 in data set [3] was 78 nM.

For `O=c1c2cccc(O)c2c(=O)c2c1sc1c(=O)c3c(O)cccc3c(=O)c12` [p21], the IC50 in data set [3] is 700 nM.

In the case of `Nc1cccc2c(=O)c3c(sc4c(=O)c5cccc(N)c5c(=O)c43)c(=O)c12` [p20], in data set [3], the IC50 worked out at 780 nM.

As for `CC(C)=CCCc1ccc2c(=O)c3c(sc4c(=O)c5ccccc5c(=O)c43)c(=O)c2c1` [alkene 10, 3-(4-Methylpent-3-en-1-yl)dinaphtho[2,3-b:2′,3′-d]thiophene-5,7,12,13-tetraone], the “storage stability of pure material” value in data set [2] (1 month at −20° C.) is “significant decomposition”. Besides, the “covalent labeling of DCD-1L” value in data set [1] is reported as “covalently label DCD-1L”. In data set [1] (PBS pH 7.2, 5% DMSO, 23° C., 24 h (FIG. 5E)), the “fluorescent labeling of DCD-1L fragment” value is “fluorescent bands corresponding to DCD-1L”.
